From patent US7390822B2, “Substituted 4-phenyl-4-[1H-imidazol-2-yl]-piperidine derivatives for reducing ischaemic damage” (Janssen Pharmaceutica, N.V., priority 2001, dated 2008)
Several values for one entry are separate records, joined by “and”; a condition that tells them apart may be missing. Identical values can stand only once.

Tests used:
[1] = test system: sheep heart (left ventricle); experiment: Sheep model (normothermic myocardial ischaemia during extra corporal circulation); format: in vivo
Protocol: The model is a sheep anaesthetized with ketamine and isoflurane. The extra corporal circulation is connected by venous cannulation of both caval veins and arterial cannulation via the carotid. An additional cannula with flow meter in the right ventricle gives the flow rate over the coronary arteries. In addition to measurements of heart rate and arterial blood pressure, the left ventricle instantaneous pressure is measured as well as the left ventricle volumes via a conductance catheter. There is also a side-tubing on the arterial cannula of the artificial heart leading to the pulmonary artery. Via this route it is possible to modulate the left ventricle preload in a perfectly controlled manner in order to obtain load-independent measurements of the left ventricle contractility before and after the study period of ischaemia. Cardiac oxygen consumption was also measured as well as regional perfusion with the aid of coloured microspheres.
The study period of ischaemia was 30 minutes while the heart remained normothermic and was fully unloaded by the extra corporal circulation and venting of the ventricles. The control group was time-matched with the other groups. The ischaemic preconditioning group was subjected to 3 times 5 minutes of preconditioning ischaemia with 5 minute reperfusion intervals. In the three groups extra corporal circulation was started 30 minutes before the study period of ischaemia was imposed. The extra corporal circulation was stopped 40 minutes after the end of the study period of ischaemia. […] Only these four will be processed here. In the other groups, 7 experiments are always processed. Before each measurement of pressure-volume ratios in the left ventricle the system was switched to the right heart bypass model in which the venous flow is diverted into the extra corporal circulation via the caval veins and the blood is returned to the sheep via the pulmonary artery.

[2] = test system: rat heart; experiment: Rat-Langendorff model (isolated perfused heart, ischaemia/reperfusion); details: individual rat hearts; for EDP: Degree of normalisation of EDP during reperfusion (amount above baseline EDP): 0 = recuperation to baseline EDP; for IC: Ischemic contracture: 4 μg/500 ml buffer, 20 min ischaemia; for Vfib: Number of ventricullar fibrillations during reperfusion: 40 min reperfusion
Protocol: A rat heart is rapidly dissected, attached by the aorta to a cannula and perfused with a physiological buffer (modified Krebs-Henseleit buffer: NaCl 118 mmol/l, KCl 4.7 mmol/l, MgSO4 1.2 mmol/l, KH2PO4 1.2 mmol/l, CaCl2 1.8 mmol/l, NaHCO3 23 mmol/l, glucose 11 mmol/l) without blood under 80 mmHg perfusion pressure. Oxygen is dissolved in the physiological buffer. The heart is paced atrially at 350 beats per minute. A balloon that can be optionally filled (adjustment preload) is inserted into the left ventricle. Diastolic pressure and the pressure developped are measured as well as the maximal rate of pressure development as a measure of contractility (inotropism) and the minimal rate of pressure decay as a measure of relaxation. Advantages of this model are: the heart is isolated and studied in controlled circumstances without interaction with other organs and the method is reasonably rapid and cheap. Disadvantages are: no blood perfusion, with only dissolved oxygen, therefore greater coronary flow rates with considerable vasodilatation of the coronary system; a closed system without metabolism and without interaction with other organs and a small animal model, relatively far away from clinical reality.
The study period of ischaemia is 20 minutes. The measurements after the study period of ischaemia (reperfusion phase) always last 40 minutes. Measurements before the study period of ischaemia last 30 minutes and are performed after stabilization. In the ischaemic preconditioning group the following is measured during these 30 minutes: 10 minutes baseline, 5 minutes ischaemia, 5 minutes reperfusion, 5 minutes ischaemia and 5 minutes reperfusion. In the group of the compounds according to the invention (4 μg/500 ml buffer solution) there is first 15 minutes baseline followed by 15 minutes treatment. Consequently, everything is time-matched.

[3] = biological target: cloned human μ opioid receptor (Homo sapiens, UniProt P35372); experiment: Radioligand binding, competition with [3H]DAMGO; details: read-out: Agonist receptor binding (pIC50) mu (converted)
Sequence of cloned human μ opioid receptor (P35372 whole entry): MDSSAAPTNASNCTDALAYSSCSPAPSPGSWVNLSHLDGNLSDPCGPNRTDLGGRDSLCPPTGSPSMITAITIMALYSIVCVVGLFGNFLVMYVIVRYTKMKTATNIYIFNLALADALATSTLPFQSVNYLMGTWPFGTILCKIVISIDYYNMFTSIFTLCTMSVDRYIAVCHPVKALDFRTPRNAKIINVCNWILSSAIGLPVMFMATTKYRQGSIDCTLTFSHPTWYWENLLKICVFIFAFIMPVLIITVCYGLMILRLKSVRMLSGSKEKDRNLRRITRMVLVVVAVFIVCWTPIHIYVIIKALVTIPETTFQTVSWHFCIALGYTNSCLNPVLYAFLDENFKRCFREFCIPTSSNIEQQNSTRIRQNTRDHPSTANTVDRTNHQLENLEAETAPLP

SMILES	melting point	Recup: % recuperation in developed pressure at the end of reperfusion [2]	EDP: Degree of normalisation of EDP during reperfusion (amount above baseline EDP) [2]	IC: Ischemic contracture [2]	Vfib: Number of ventricullar fibrillations during reperfusion [2]	further results
CCOC(=O)N1CCC(c2ccccc2)(c2nccn2Cc2ccccc2)CC1 [Compound 1, ethyl 4-phenyl-4-[1-(phenylmethyl)-1H-imidazol-2-yl]-1-piperidinecarboxylate]		92% and 85% and 82%	0 mmHg and +7 mmHg and +8 mmHg	4 mmHg and 6 mmHg and 8 mmHg	0 (2×) and 1 (short)	Tau (ventricular relaxation) ([1]; compared to control group 70 and 100 minutes after end of ischaemia): significantly lower; Preload recruitable stroke work (PRSW) ([1]; compared to control group after 70 and 100 minutes of reperfusion): significantly better; Cardiac flow after reperfusion ([1]; compared to control group, no significant difference): tendency for cardiac flow to be higher; Contractile efficacy (O2-consumption converted into PVA) ([1]; control group 32.8%, ischaemic preconditioning group 44.5%, p<0.001): 46.7%
CC(C)OC(=O)N1CCC(c2ccccc2)(c2nccn2Cc2ccccc2)CC1 [Compound 25]		79% and 85% and 75%	+6 mmHg (2×) and +10 mmHg	5 mmHg and 7 mmHg (2×)	0 and 1 (short) and 2 (short)	
CCCOC(=O)N1CCC(c2ccccc2)(c2nccn2Cc2ccccc2)CC1 [Compound 24]		91% and 85% and 87%	0 mmHg and +5 mmHg and +7 mmHg	10 mmHg and 5 mmHg and 7 mmHg	0 (2×) and 1 (short)	
COC(=O)c1ccc(Cn2ccnc2C2(c3ccccc3)CCN(c3nc4ccccc4o3)CC2)cc1 [Compound 102]						IC50 [3]: > 1 µM

Further lines, with some results ahead:

melting point	SMILES	Recup: % recuperation in developed pressure at the end of reperfusion [2]	EDP: Degree of normalisation of EDP during reperfusion (amount above baseline EDP) [2]	IC: Ischemic contracture [2]	Vfib: Number of ventricullar fibrillations during reperfusion [2]	further results
251.6 °C	CCOC(=O)N1CCC(c2ccccc2)(c2nccn2Cc2ccc(C(=O)O)cc2)CC1 [Compound 8]					
122.7 °C	O=C(c1ccccc1)N1CCC(c2ccccc2)(c2nccn2Cc2ccccc2)CC1 [Compound 2]					
149.1 °C	CCOC(=O)N1CCC(c2ccccc2)(c2nccn2Cc2ccc(C(=O)OC)cc2)CC1 [Compound 3]					
84.2 °C	CCN/C(=N/C#N)N1CCC(c2ccccc2)(c2nccn2Cc2ccccc2)CC1 [Compound 4]					
